Measured values published in patent US20260042769A1, “TRIARYL AGONISTS OF ALPHA-2 ADRENERGIC RECEPTORS” (ALCEPTOR THERAPEUTICS, INC., priority 2023, published 2026).

target: T1, human ADRA2B receptor (Homo sapiens, UniProt P18089); assay: ADRA2B arrestin agonist assay; format: cell-based; details: CHO-K1 cells stably expressing human ADRA2B; read-out: Beta-Arrestin - Human Alpha2B EC50
T1 construct: expressed in transfected cells
T1 sequence (P18089 1-450): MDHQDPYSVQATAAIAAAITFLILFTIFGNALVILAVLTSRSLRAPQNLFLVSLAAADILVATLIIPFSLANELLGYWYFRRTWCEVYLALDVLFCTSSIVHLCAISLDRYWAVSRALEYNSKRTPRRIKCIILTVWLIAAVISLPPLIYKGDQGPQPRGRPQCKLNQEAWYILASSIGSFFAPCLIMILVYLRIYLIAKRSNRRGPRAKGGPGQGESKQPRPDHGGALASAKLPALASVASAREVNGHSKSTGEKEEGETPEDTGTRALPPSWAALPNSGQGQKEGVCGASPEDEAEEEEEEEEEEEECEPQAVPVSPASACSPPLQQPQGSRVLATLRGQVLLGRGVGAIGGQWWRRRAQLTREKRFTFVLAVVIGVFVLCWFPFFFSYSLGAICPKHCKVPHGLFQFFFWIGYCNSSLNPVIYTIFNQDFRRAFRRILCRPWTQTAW
Procedure, shortened: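 CHO-K1 cells stably expressing human ADRA2B, thawed from frozen stock and plated overnight, were treated with agonist for 2 h at 37 °C. Arrestin recruitment detected by luminescence after 2 h with detection reagents at room temperature.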

| Structure (SMILES) | EC50 |
| --- | --- |
| Cc1cccc(C(Cc2ccnc(CO)n2)c2c[nH]cn2)c1F (centres unmarked) [Compound 156, {4-[2-(2-fluoro-3-tolyl)-2-(4-imidazolyl)ethyl]-2-pyrimidinyl}methanol] | < 10 nM |
| Cc1nccc(CC(c2c[nH]cn2)c2cccc3c2cnn3C)n1 (centres unmarked) [Compound 167, 4-[1-(4-imidazolyl)-2-(2-methyl-4-pyrimidinyl)ethyl]-1-methyl-1H-indazole] | < 10 nM |
| COCc1cccc(CC(c2c[nH]cn2)c2cccc(C)c2C)n1 (centres unmarked) [Compound 294, 4-{2-[6-(methoxymethyl)-2-pyridyl]-1-(2,3-xylyl)ethyl}imidazole] | < 10 nM |
| Cc1cccc([C@H](Cc2cccc(C(C)(C)O)n2)c2c[nH]cn2)c1C [Compound 305, 2-{6-[(S)-2-(4-imidazolyl) 2-(2,3-xylyl)ethyl]-2-pyridyl}-2-propanol] | > 500 nM |
| COc1nccc(CC(c2c[nH]cn2)c2ccc(C)c(F)c2F)n1 (centres unmarked) [Compound 189, 4-[2-(2,3-difluoro-4-tolyl)-2-(4-imidazolyl)ethyl]-2-methoxypyrimidine] | > 500 nM |
| c1cc2c(c([C@H](Cc3cocn3)c3c[nH]cn3)c1)OCC2 [Compound 372, 4-[(S)-2-(2,3-dihydro-1-benzofuran-7-yl)-2-(4-imidazolyl)ethyl] 1,3-oxazole] | 50 to 500 nM |
| Cn1nccc1CC(c1c[nH]cn1)c1cccc2c1OCCCO2 (centres unmarked) [Compound 299, 5-[2-(3,4-dihydro-2H-1,5-benzodioxepin-6-yl)-2-(4-imidazolyl)ethyl]-1-] | > 500 nM |
| CCOc1ccc(CC(c2c[nH]cn2)c2cccc(C)c2C)cn1 (centres unmarked) [Compound 293, 4-[2-(6-ethoxy-3-pyridyl)-1-(2,3-xylyl)ethyl]imidazole] | 10 to 50 nM |
| Cc1cc(C[C@@H](c2c[nH]cn2)c2cccc(C)c2F)ncn1 [Compound 143, 4-[(R)-2-(2-fluoro-3-tolyl)-2-(4-imidazolyl)ethyl]-6-methylpyrimidine] | < 10 nM |
| Cc1cc(C[C@H](c2c[nH]cn2)c2cccc(C)c2F)ncn1 [Compound 144, 4-[(S)-2-(2-fluoro-3-tolyl)-2-(4-imidazolyl)ethyl]-6-methylpyrimidine] | > 500 nM |
| Cc1cccc(C(Cc2ccnc(C(C)C)n2)c2c[nH]cn2)c1C (centres unmarked) [Compound 291, 4-[2-(4-imidazolyl)-2-(2,3-xylyl)ethyl]-2-isopropylpyrimidine] | < 10 nM |
| Cc1cccc([C@@H](Cc2cocn2)c2c[nH]cn2)c1C [Compound 367, 4-[(R)-2-(4-imidazolyl)-2-(2,3-xylyl)ethyl]-1,3-oxazole] | > 500 nM |
| COCc1nccc(CC(c2c[nH]cn2)c2cccc3c2OCCO3)n1 (centres unmarked) [Compound 356, 4-[2-(2,3-dihydro-1,4-benzodioxin-5-yl)-2-(4-imidazolyl)ethyl]-2-(methoxymethyl)pyrimidine] | 10 to 50 nM |
| COc1c(C)cccc1C(Cc1cc[nH]n1)c1c[nH]cn1 (centres unmarked) [Compound 242, 3-[2-(4-imidazolyl)-2-(2-methoxy-3-tolyl)ethyl]pyrazole] | > 500 nM |
| Fc1c(Cl)cccc1C(Cc1cc[nH]n1)c1c[nH]cn1 (centres unmarked) [Compound 251, 3-[2-(3-chloro-2-fluorophenyl)-2-(4-imidazolyl)ethyl]py-razole] | 50 to 500 nM |
| Cc1cccc([C@@H](Cc2cccc(CO)n2)c2c[nH]cn2)c1C [Compound 146, {6-[(R)-2-(4-imidazolyl)-2-(2,3-xylyl)ethyl]-2-pyridyl}methanol] | < 10 nM |
| COc1nccc(C[C@@H](c2c[nH]cn2)c2cccc(F)c2OC)n1 [Compound 182, 4-[(R)-2-(3-fluoro-2-methoxyphenyl)-2-(4-imidazolyl)ethyl]-2-methoxypyrimidine] | 10 to 50 nM |
| Cc1nsc(CC(c2c[nH]cn2)c2cccc(C)c2C)n1 (centres unmarked) [Compound 264, 5-[2-(4-imidazolyl)-2-(2,3-xylyl)ethyl]-3-methyl-1,2,4-thiadiazole] | 50 to 500 nM |
| Cc1cnc(CC(c2c[nH]cn2)c2cccc(C)c2C)s1 (centres unmarked) [Compound 385, 2-[2-(4-imidazolyl)-2-(2,3-xylyl)ethyl]-5-methyl-1,3-thiazole] | < 10 nM |
| Cc1cccc([C@H](Cc2cnco2)c2c[nH]cn2)c1F [Compound 370, 5-[(S)-2-(2-fluoro-3-tolyl)-2-(4-imidazolyl)ethyl]-1,3-oxazole] | 10 to 50 nM |
| COc1c(C)cccc1[C@H](Cc1ccnn1C)c1c[nH]cn1 [Compound 382, 5-[(S)-2-(4-imidazolyl)-2-(2-methoxy-3-tolyl)ethyl]-1-methylpyrazole] | 10 to 50 nM |

Results, then the compound that gave them:

| EC50 | Structure (SMILES) |
| --- | --- |
| < 10 nM | COCc1cc(CC(c2c[nH]cn2)c2cccc(C)c2C)ccn1 (centres unmarked) [Compound 295, 4-{2-[2-(methoxymethyl)-4-pyridyl]-1-(2,3-xylyl)ethyl}imidazole] |
| < 10 nM | Cc1cc(CC(c2c[nH]cn2)c2cccc(C)c2C)c(Cl)cn1 (centres unmarked) [Compound 395, 4-[2-(5-chloro-2-methyl-4-pyridyl)-1-(2,3-xylyl)ethyl]imidazole] |
| < 10 nM | Cc1cccc([C@@H](Cc2ccnc(C3CC3)n2)c2c[nH]cn2)c1C [Compound 169, 4-[(R)-2-(4-imidazolyl)-2-(2,3-xylyl)ethyl]-2-cyclopropylpyrimidine] |
| > 500 nM | Cc1cccc([C@H](Cc2cccc(CO)n2)c2c[nH]cn2)c1C [Compound 147, {6-[(S)-2-(4-imidazolyl)-2-(2,3-xylyl)ethyl]-2-pyridyl}methanol] |
| 10 to 50 nM | Cn1ncc2c(C(Cc3cccc(CF)n3)c3c[nH]cn3)cccc21 (centres unmarked) [Compound 303, 4-{2-[6-(fluoromethyl)-2-pyridyl]-1-(4-imidazolyl)ethyl}-1-methyl-1H-indazole] |
| < 10 nM | Cc1cccc(C(Cc2ncnc3[nH]ccc23)c2c[nH]cn2)c1C (centres unmarked) [Compound 286, 4-[2-(4-imidazolyl)-2-(2,3-xylyl)ethyl]-1H-1,5,7-triazaindene] |
| > 500 nM | COc1nccc(CC(c2c[nH]cn2)c2ccccc2S(=O)(=O)N2CCCC2)n1 (centres unmarked) [Compound 358, 4-{2-(4-imidazolyl)-2-[o-(1-pyrrolidinylsulfonyl)phenyl]ethyl}-2-methoxypyrimidine] |
| < 10 nM | Cc1cccc(C(Cc2ccc(C(=O)N(C)C)nc2)c2c[nH]cn2)c1C (centres unmarked) [Compound 311, N,N-dimethyl-5-[2-(4-imidazolyl)-2-(2,3-xylyl)ethyl]-2-pyridinecarboxamide] |
| < 10 nM | CNC(=O)c1ccc(CC(c2c[nH]cn2)c2cccc(C)c2C)cn1 (centres unmarked) [Compound 302, N-methyl-5-[2-(4-imidazolyl)-2-(2,3-xylyl)ethyl]-2-pyridinecarboxamide] |
| > 500 nM | COc1nccc(CC(c2c[nH]cn2)c2cccc3c(C4CC4)noc23)n1 (centres unmarked) [Compound 357, 3-cyclopropyl-7-[1-(4-imidazolyl)-2-(2-methoxy-4-pyrimidinyl)ethyl]-1,2-benzisoxazole] |
| > 500 nM | CCc1cccc(C(Cc2ccn3ccnc3c2)c2c[nH]cn2)c1O (centres unmarked) [Compound 397, 2-[2-(1,3a-diaza-6-indenyl)-1-(4-imidazolyl)ethyl]-6-ethylphenol] |
| < 10 nM | Cc1nccc(CC(c2c[nH]cn2)c2cccc(Cl)c2Cl)n1 (centres unmarked) [Compound 192, 4-[2-(2,3-dichlorophenyl)-2-(4-imidazolyl)ethyl]-2-methylpyrimidine] |
| > 500 nM | COc1c(C)cccc1[C@@H](Cc1ccnn1C)c1c[nH]cn1 [Compound 381, 5-[(R)-2-(4-imidazolyl)-2-(2-methoxy-3-tolyl)ethyl]-1-methylpyrazole] |
| < 10 nM | Cc1cccc(C(Cc2ccnc(C3CCO3)n2)c2c[nH]cn2)c1C (centres unmarked) [Compound 405, 4-[2-(2,3-dimethylphenyl)-2-(1H-imidazol-4-yl)ethyl]-2-(oxetan-2-yl)pyrimidine] |
| > 500 nM | c1cc2c(c(C(Cc3cccn4ccnc34)c3c[nH]cn3)c1)OCC2 (centres unmarked) [Compound 400, 4-[2-(1,3a-diaza-7-indenyl)-1-(2,3-dihydro-1-benzofuran-7-yl)ethyl]imidazole] |
| < 10 nM | COc1ccc(CC(c2c[nH]cn2)c2cccc(C)c2C)cn1 (centres unmarked) [Compound 273, 4-[2-(6-methoxy-3-pyridyl)-1-(2,3-xylyl)ethyl]imidazole] |
| < 10 nM | Cc1cccc([C@H](Cc2ccnn2C(F)F)c2c[nH]cn2)c1C [Compound 281, 5-[(S)-2-(4-imidazolyl)-2-(2,3-xylyl)ethyl]-1-(difluoromethyl)pyrazole] |
| > 500 nM | Cn1ccc2cccc(C(Cc3cc[nH]n3)c3c[nH]cn3)c21 (centres unmarked) [Compound 253, 3-[2-(4-imidazolyl)-2-(1-methyl-7-indolyl)ethyl]pyrazole] |
| 10 to 50 nM | COc1nccc(CC(c2c[nH]cn2)c2cccc(F)c2C)n1 (centres unmarked) [Compound 154, 4-[2-(3-fluoro-2-tolyl)-2-(4-imidazolyl)ethyl]-2-methoxypyrimidine] |
| 50 to 500 nM | Cn1ccc2cccc(C(Cc3cocn3)c3c[nH]cn3)c21 (centres unmarked) [Compound 377, 4-[2-(4-imidazolyl)-2-(1-methyl-7-indolyl)ethyl]-1,3-oxazole] |
| > 500 nM | Cc1cccc([C@@H](Cc2ccn(C(F)F)n2)c2c[nH]cn2)c1C [Compound 282, 3-[(R)-2-(4-imidazolyl)-2-(2,3-xylyl)ethyl]-1-(difluoromethyl)pyrazole] |
| > 500 nM | c1cc2c(c([C@@H](Cc3cocn3)c3c[nH]cn3)c1)OCCO2 [Compound 383, 4-[(R)-2-(2,3-dihydro-1,4-benzodioxin-5-yl)-2-(4-imidazolyl)ethyl] 1,3-oxazole] |
| 50 to 500 nM | COc1c(C)cccc1C(Cc1cccc(C)n1)c1c[nH]cn1 (centres unmarked) [Compound 389, 4-[1-(2-methoxy-3-tolyl)-2-(6-methyl-2-pyridyl)ethyl]imida-zole-formic acid (1/1)] |
